US20070134315A1, “Orally administrable extended release pellet and tablet formulations of a highly water soluble compound” (priority 2005, published 2007)
In brackets after ≈: the same amount, converted by molar mass.

Key:
[1] = Water solubility of isovaleramide and dose number; assay type: physicochemical
Procedure: The water solubility of the drug substance as used herein, is defined according to its dose number, Do, for oral drug delivery. The dose number for a drug is defined by the ratio of its dose concentration to its saturation solubility in a reference fluid according to the following calculation: [formula]
where: Mo is the dose of the drug (mg), Vo is the reference fluid volume (mL) and Cs is the saturation solubility of the drug in the reference fluid (mg/mL) at 37° C. Representative reference fluids for oral drug delivery are aqueous based solutions within the relevant physiologic pH range of the gastrointestinal tract (i.e., pH 1-pH 7.5). A representative reference fluid volume for oral drug delivery is 250 mL. A drug substance is considered to be highly soluble if at its highest dose the Do value is ≦1. […] The solubility of isovaleramide in water at 37° C. is approximately 70 mg/mL. The upper range of a single daily dose of isovaleramide could be 1200 mg to 2400 mg. The Do number range for isovaleramide, calculated using a reference volume of 250 mL and the single daily dose range of 1200 mg to 2400 mg, is 0.07 to 0.14.

[2] = Isothermal thermogravimetric analysis (TGA) of sublimation; assay type: physicochemical
Procedure: The temperature dependent physical instability of the drug substance was studied in detail in order to determine the appropriate pharmaceutical formulation processes and temperature ranges suitable for the preparation of the pharmaceutical compositions of isovaleramide. An automated thermogravimetric analysis (TGA) method was used to determine the relative rates of isovaleramide sublimation. Isothermal TGA was conducted at 30° C., 35° C., 40° C., 45° C., 50° C. and 60° C. for 24 hours. Samples were prepared by first taring a platinum TGA pan on the TGA system. A sample amount of isovaleramide of 10 mg-15 mg was then added to the pan and distributed evenly. The sample pan was then loaded onto the TGA autosampler for subsequent analysis. Samples were initially equilibrated at their respective isothermal temperature and then monitored for 24 hours. Data sampling was accomplished at a rate of 600 seconds/point. Sample replicates ranged from 1 to 3. TGA instrument and operating conditions were as follows: […]

In the case of `CC(C)CC(N)=O` [Isovaleramide, isovaleramide], the “pH dependence of solubility” value ([1]; physiologic pH range of the gastrointestinal tract) is reported as “pH independent solubility”, the solubility ([1]; water, 37° C.) is reported as about 70 mg/mL (≈ 692 mM) and the “Reduction in Weight %” value ([2]; isothermal 30° C., 1 hr) is reported as 0.05%. For the same compound, the “Reduction in Weight %” value ([2]; isothermal 30° C., 3 hr) was 0.12%, the “Reduction in Weight %” value ([2]; isothermal 30° C., 6 hr) was 0.25% and the “Reduction in Weight %” value ([2]; isothermal 30° C., 9 hr) was 0.41%. The “Reduction in Weight %” value ([2]; isothermal 30° C., 12 hr) was 0.62%, the “Reduction in Weight %” value ([2]; isothermal 30° C., 15 hr) was 0.82% and the “Reduction in Weight %” value ([2]; isothermal 30° C., 18 hr) was 1.01%. For the same compound, the “Reduction in Weight %” value ([2]; isothermal 30° C., 21 hr) was 1.20%, the “Reduction in Weight %” value ([2]; isothermal 30° C., 24 hr) was 1.32% and the “Reduction in Weight %” value ([2]; isothermal 35° C., 1 hr, mean of three) was 0.10%. The “Reduction in Weight %” value ([2]; isothermal 35° C., 3 hr, mean of three) was 0.28%, the “Reduction in Weight %” value ([2]; isothermal 35° C., 6 hr, mean of three) was 0.55% and the “Reduction in Weight %” value ([2]; isothermal 35° C., 9 hr, mean of three) was 0.83%. For the same compound, the “Reduction in Weight %” value ([2]; isothermal 35° C., 12 hr, mean of three) was 1.12%, the “Reduction in Weight %” value ([2]; isothermal 35° C., 15 hr, mean of three) was 1.41% and the “Reduction in Weight %” value ([2]; isothermal 35° C., 18 hr, mean of three) was 1.67%. For the same compound, the “Reduction in Weight %” value ([2]; isothermal 35° C., 21 hr, mean of three) was 1.92%, the “Reduction in Weight %” value ([2]; isothermal 35° C., 24 hr, mean of three) was 2.17% and the “Reduction in Weight %” value ([2]; isothermal 40° C., 1 hr, mean of three) was 0.14%. The “Reduction in Weight %” value ([2]; isothermal 40° C., 3 hr, mean of three) was 0.53%, the “Reduction in Weight %” value ([2]; isothermal 40° C., 6 hr, mean of three) was 1.10% and the “Reduction in Weight %” value ([2]; isothermal 40° C., 9 hr, mean of three) was 1.65%. The “Reduction in Weight %” value ([2]; isothermal 40° C., 12 hr, mean of three) was 2.27%, the “Reduction in Weight %” value ([2]; isothermal 40° C., 15 hr, mean of three) was 2.83% and the “Reduction in Weight %” value ([2]; isothermal 40° C., 18 hr, mean of three) was 3.43%. For the same compound, the “Reduction in Weight %” value ([2]; isothermal 40° C., 21 hr, mean of three) was 4.02%, the “Reduction in Weight %” value ([2]; isothermal 40° C., 24 hr, mean of three) was 4.58% and the “Reduction in Weight %” value ([2]; isothermal 45° C., 1 hr) was 0.27%. The “Reduction in Weight %” value ([2]; isothermal 45° C., 3 hr) was 0.91%, the “Reduction in Weight %” value ([2]; isothermal 45° C., 6 hr) was 1.97% and the “Reduction in Weight %” value ([2]; isothermal 45° C., 9 hr) was 2.95%. The “Reduction in Weight %” value ([2]; isothermal 45° C., 12 hr) was 3.95%, the “Reduction in Weight %” value ([2]; isothermal 45° C., 15 hr) was 4.98% and the “Reduction in Weight %” value ([2]; isothermal 45° C., 18 hr) was 6.02%. The “Reduction in Weight %” value ([2]; isothermal 45° C., 21 hr) was 7.05%, the “Reduction in Weight %” value ([2]; isothermal 45° C., 24 hr) was 8.01% and the “Reduction in Weight %” value ([2]; isothermal 50° C., 1 hr) was 0.54%. For the same compound, the “Reduction in Weight %” value ([2]; isothermal 50° C., 3 hr) was 1.65%, the “Reduction in Weight %” value ([2]; isothermal 50° C., 6 hr) was 3.35% and the “Reduction in Weight %” value ([2]; isothermal 50° C., 9 hr) was 5.05%. The “Reduction in Weight %” value ([2]; isothermal 50° C., 12 hr) was 6.68%, the “Reduction in Weight %” value ([2]; isothermal 50° C., 15 hr) was 8.35% and the “Reduction in Weight %” value ([2]; isothermal 50° C., 18 hr) was 10.04%. The “Reduction in Weight %” value ([2]; isothermal 50° C., 21 hr) was 11.77%, the “Reduction in Weight %” value ([2]; isothermal 50° C., 24 hr) was 13.43% and the “Reduction in Weight %” value ([2]; isothermal 60° C., 1 hr, mean of three) was 1.98%. The “Reduction in Weight %” value ([2]; isothermal 60° C., 3 hr, mean of three) was 5.96%, the “Reduction in Weight %” value ([2]; isothermal 60° C., 6 hr, mean of three) was 11.90% and the “Reduction in Weight %” value ([2]; isothermal 60° C., 9 hr, mean of three) was 17.79%. For the same compound, the “Reduction in Weight %” value ([2]; isothermal 60° C., 12 hr, mean of three) was 23.61%, the “Reduction in Weight %” value ([2]; isothermal 60° C., 15 hr, mean of three) was 29.37% and the “Reduction in Weight %” value ([2]; isothermal 60° C., 18 hr, mean of three) was 35.03%. The “Reduction in Weight %” value ([2]; isothermal 60° C., 21 hr, mean of three) was 40.53% and the “Reduction in Weight %” value ([2]; isothermal 60° C., 24 hr, mean of three) was 44.74%.
